The text below walks through data of US6544983B2, “Diazepinoindoles for the treatment of chronic obstructive pulmonary disease” (Pfizer Inc, priority 2000, dated 2003).

Read-outs that look alike come from different tables or passages of the source.

Data set [1] concerns LPS-induced lung neutrophilia. Put plainly: Neutrophilia induced by LPS aerosol in the Wistar rat. The class given is in vivo. Particulars: Wistar rats, oral. The method, then: (§1) The model retained to assess the usefulness of the compounds of the invention for the treatment of COPD was a neutrophilia model. Neutrophilia was induced by exposure of rats or mice to a lipopolysaccharide (LPS) aerosol.
The animals were treated with compound 1 or cilomilast when conscious, that was by the oral route.
One hour after the treatment, the rats were placed in a plexiglass box and were given a 200 μg/ml aerosol of LPS (Escherichia coli, serotype O55:B5) for 1 hour. Control rats were not given the LPS aerosol. This control is called ‘sham’ in FIGS. 1 and 2.
Two hours after the exposure to the LPS, the animals were then anaesthetised by intraperitoneal injection of 6% sodium pentobarbital at a rate of 1 ml/kg. A tracheotomy was carried out and a tracheal cannula was inserted.
Using a 5-ml syringe, 3 consecutive washings were carried out with a 5-ml volume of a […] NaCl+EDTA solution (37° C.), in order to recover the cell population present in the lumen of the airways. The fluid which had thus been withdrawn was stored at +4° C. on ice.

The test system of data set [2] is LPS-induced TNFα release in whole blood. Put plainly: Inhibition of in vitro LPS-induced TNFα production in whole blood of COPD patients. Particulars: Homo sapiens; whole blood of COPD patients (n=7), LPS 50 μg/ml, 22-24 h at 37° C., ELISA. The class given is cell-based. The text has this: The aim of this study was to compare the in vitro activities of three selective PDE4 inhibitors (compound 1, rolipram which is 4-[3-(cyclopentyloxy)-4-methoxy-phenyl]-2-pyrrolidinone, and cilomilast) at reducing lipopolysaccharide (LPS)-induced TNFα release in whole blood of COPD patients. Thirteen COPD patients, diagnosed according to the ATS guidelines^iv, were included in this study to determine the concentration-effect of LPS on TNF^α production (n=6) and the IC50 values of compound 1, rolipram and cilomilast (n=7).
Blood (15 ml/patient) was collected in heparin tubes and distributed in 96-well microplates (250 μl/well).
After a 30-min incubation at 37° C., 25 μl of increasing concentrations of the compound to test or vehicle were added in different wells. The microplates were incubated at 37° C. for 30 min, and then 25 μl of LPS (E. coli) at 50 μg/ml (stimulated wells) or 25 μl of sterile saline (unstimulated wells) were added. The microplates were incubated 22-24 h at 37° C.
125 μl of the supernatant plasma were transferred gently in sterile 96-well microplates and stored at −80° C. until TNFα assay. The TNFα production was then measured by an ELISA assay.
(ELISA stands for enzyme-linked immunosorbent assay.)

For data set [3] the following is noted: single dose of 20 mg; Murdoch et al. 1998; cited from earlier work.
The conditions of data set [4]: in humans; Torphy et al. 1999; cited from earlier work.
The nature of data set [5]: Half-life in humans after single oral doses to healthy volunteers. Conditions: human, in vivo, single oral doses 1 to 25 mg. The source says:
Such values indicate that compound 1 may be administered once daily.

Data set [6] has as its system LPS-induced lung neutrophilia. The data set is described as follows: Neutrophilia induced by LPS aerosol in the C57 bl/6 mouse. In kind it is in vivo. Conditions: oral route, 1 h before LPS aerosol 100 μg/ml; bronchoalveolar washings 24 h after exposure. The method, then:
as §1
The animals were treated with compound 1 when conscious, that was by the oral route.
One hour after treatment, the mice were placed in a plexiglass box (at most 25 mice to a box) and were given a 100 μg/ml aerosol of LPS (Escherichia coli, serotype O55:B5) for 1 hour. Control mice were not given the LPS aerosol.
Twenty-four hours after the exposure to the LPS, the animals were then anaesthetised by an intraperitoneal injection of 0.6% sodium pentobarbital at a rate of 15 ml/kg. A tracheotomy was carried out and a tracheal cannula was inserted. […]
The cells contained in the bronchoalveolar washing fluid were counted using a Coulter particle counter. […]
The arithmetic mean and the standard deviation (SD) of the number of neutrophils in the bronchoalveolar washing fluids were calculated for each treatment group. The percentage inhibition was calculated in the following manner: [formula] […]
The 90% confidence interval for the percentage inhibition was to be calculated by the “Delta method” or “Fieller method” ^i, ii & iii (Armitage & al, 1998; Feuerstein & al, 1997; Hubert & al, 1988) if appropriate.

Usually IC50 stands for the concentration needed to halve the response being measured. The low end stands for higher potency, the high end for lower potency. `COc1ccc([C@]2(C#N)CC[C@@H](C(=O)O)CC2)cc1OC1CCCC1` [cilomilast, cis-4-cyano-4-[3-(cyclopentyloxy)-4-methoxyphenyl]cyclohexane carboxylic acid]: the “percentage of inhibition of the LPS-induced lung neutrophilia” value in data set [1] (30 mg/kg) came to 74%. Further, the IC50 in data set [2] is more than 10 µM. Moreover, in data set [3], the side effects result is “relevant side effects such as nausea and vomiting occurred”. Also, the elimination half-life entry in data set [4] is “approximately 8 hours”.
A word on the half-life: it is the time in which the quantity being followed falls by half. Turning to `Nc1cc2c3c(c1)C(c1ccccc1)=N[C@@H](NC(=O)c1cccnc1)C(=O)N3CC2` [compound 1, (3R)N-(9-amino-4-oxo-1-phenyl-3,4,6,7-tetrahydro-[1,4]diazepino[6,7,1-hi]indol-3-yl)-nicotinamide], in data set [1] (10 mg/kg), the “efficiency relative to cilomilast at the same dose” value is reported as “twice more efficient than cilomilast”. Besides, the “percentage of inhibition of the LPS-induced lung neutrophilia” value in data set [1] (10 mg/kg) stood at 74%; in data set [1] (30 mg/kg), 80%. This molecule also displayed a concentration for half-maximal inhibition (IC50) in data set [2] of 1.3 ± 0.7 µM. Further, the half-life in data set [5] (read-out: mean terminal half-life values, range over doses) is 13.9 to 17.1 h; in data set [5] (read-out: terminal half-life, mean over all doses (converted)) it was 15.4 h. Besides, the “inhibition of the LPS-induced lung neutrophilia in mice” value in data set [6] is “strongly inhibited”.
`COc1ccc(C2CNC(=O)C2)cc1OC1CCCC1` (stereo not drawn) [rolipram, 4-[3-(cyclopentyloxy)-4-methoxy-phenyl]-2-pyrrolidinone] yielded an IC50 in data set [2] of 2.8 ± 0.9 µM.
